Laboratory results: patent publication US20220170930A1, “METHOD FOR SCREENING COMPOUND FOR TREATING OR PREVENTING POLYQ-RELATED NEURODEGENERATIVE DISEASES” (FUDAN UNIVERSITY, priority 2019, published 2022)

Columns and labels:
mHTT = experiment: Intracerebroventricular injection, mHTT and wtHTT in cortices of HD mice; type: in vivo, mouse
Method: Experimental animals: Hdh^Q140/Q7 mice (3 months old), 4 in each group.
Each test includes three repetitions for each sample, and the mean values was calculated (FIG. 16).

LC3B [1] = molecular target: T1, LC3B (Homo sapiens, UniProt Q9GZQ8); experiment: OI-RD affinity with LC3B; type: binding
T1 construct: His8 (N, cleaved yes); GST (from pGEX-6P1) (N, cleaved yes); made in house; host or cells: E. coli BL21(DE3)pLsyS
Method: 01-RD images before and after incubation with the target protein was obtained following the method in (1).
(§1) The difference images of the above steps (1), (2), (3) (the image after incubation minus the image before incubation) was analyzed respectively.
Each compound was printed in triplicates on the microarray. 01-RD was used to measure the affinity reaction parameters of the compound with LC3B, full-length mHTT (flHTT-Q73) and full-length HTT-Q23 (flHTT-Q23).

MBP-ATXN3-Q28 = molecular target: T2, MBP-ATXN3-Q28 (Homo sapiens, UniProt P54252, INS305QQQQQQQQQQQQQQQQQQ); experiment: OI-RD affinity screening with MBP-ATXN3-Q28; type: binding; details: OI-RD difference images
T2 construct: His8 with TEV protease cleavage site; made in house; host or cells: Escherichia coli Rosetta(DE3)pLsyS
Method: Screening was conducted using a method similar to 1.1, except for that the target protein HTTexon1-Q72-MBP in step (1) of 1.1 was replaced with MBP-ATXN3-Q68 and the target protein HTTexon1-Q25-MBP in step (2) of 1.1 was replaced with MBP-ATXN3-Q28, to obtain compounds that can selectively bind to ATXN3 with abnormally expanded polyQ (MBP-ATXN3-Q68).

MBP-ATXN3-Q68 = MBP-ATXN3-Q68 (Homo sapiens, UniProt P54252, INS305QQQQQQQQQQQQQQQQQQQQQQQQQQQQQQQQQQQQQQQQQQQQQQQQQQQQQQQQQQ); experiment: MST affinity with MBP-ATXN3-Q68
Method: (§3) The affinity of the compound with full-length HTT and LC3B was verified with micro thermophoresis (MST) using Monolith NT.115 instrument from NanoTemper Technologies. The reaction buffer was 20 mM HEPES, pH 7.4, 150 mM NaCl.

Q53-GFP = experiment: OI-RD affinity reaction parameters with Q53-GFP; type: binding
Description: (§2) (1) PolyQ-GFP cDNA sequence (expressing Met-polyQ-GFP, wherein polyQ was Q72 or Q25) was synthesized de novo and subcloned into pcDNA vector. […] And the same method was used to obtain cells expressing Q53-GFP, cells expressing Q46-GFP, and cells expressing Q38-GFP.

LC3B [2] = molecular target: T1, LC3B; experiment: MST affinity with LC3B; type: binding; details: MST, LC3B, protein 500 nM; read-out: Kd
[3] = test system: proteins with expanded polyglutamine (polyQ-GFP); experiment: OI-RD affinity screening with polyQ-GFP proteins; type: binding; details: OI-RD difference images
Method: To identify compound(s) that can selectively bind to proteins containing expanded polyglutamine, screening was conducted using a method similar to 1.1, except for that the target protein HTTexon1-Q72-MBP in step (1) of 1.1 was replaced with the polyQ-GFP protein prepared in 10.1, and the target protein HTTexon1-Q25-MBP in step (2) of 1.1 was replaced with GFP.

HTTexon1-Q72-MBP = molecular target: T3, HTTexon1-Q72-MBP (Homo sapiens, UniProt P42858, INS38QQQQQQQQQQQQQQQQQQQQQQQQQQQQQQQQQQQQQQQQQQQQQQQQQQQ); experiment: OI-RD affinity screening and affinity reaction parameters with HTTexon1-Q72; type: binding
T3 construct: made in house; host or cells: mammalian expression vector pTT5SH8Q2
Method: Each compound was printed in duplicate on the microarray. The compound not fixed on the surface of the chip was washed away. The chip was sealed and cleaned. 01-RD microscope was applied to scan the images. […] The chips are cleaned and scanned.
as §1
Each compound was printed in triplicates on the microarray. 01-RD was used to measure the affinity reaction parameters of compounds with HTTexon1-Q72 and HTTexon1-Q25.

[4] = test system: polyQ-GFP (Q72-GFP, Q25-GFP); experiment: polyQ-GFP level in HEK293T cells by Incucyte fluorescence counting; type: cell-based; details: Q72-GFP vs Q25-GFP expressing HEK293T cells, 100 nM compound 1, 100 nM compound 3 or 50 nM compound 4, 2 days
Description: (1) PolyQ-GFP cDNA sequence (expressing Met-polyQ-GFP, wherein polyQ was Q72 or Q25) was synthesized de novo and subcloned into pcDNA vector. It was transfected into HEK293T cells (ATCC, CRL-3216) through forward transfection to obtain Q72-GFP expressing cells and Q25-GFP expressing cells, respectively. And the same method was used to obtain cells expressing Q53-GFP, cells expressing Q46-GFP, and cells expressing Q38-GFP.
The Q72-GFP expressing cells and Q25-GFP expressing cells obtained in step (1) of 10.1 were used. […] Then the level of polyQ-GFP was measured by Incucyte fluorescence counting (FIG. 25).

Q72-GFP = experiment: OI-RD affinity reaction parameters with Q72-GFP; type: binding
Description: as §2

wtHTT = molecular target: T4, wtHTT (Mus musculus, UniProt P42859); experiment: Western-blot wtHTT level in primary cultured cortical neurons; type: cell-based; details: Hdh^Q7/Q7 cortical neurons, 2 days
T4 construct: endogenous in cells; host or cells: primary cortical neurons of newborn Hdh Q140/Q7 and Hdh Q7/Q7 mice
Method: Primary cultured cortical neurons: The brains of Hdh^Q140/Q7 and Hdh^Q7/Q7 newborn mice (P0) were dissected, digested, dissociated, and cultured.
(1) The primary cultured Hdh^Q140/Q7 and Hdh^Q7/Q7 mouse cortical neuron cells were treated with the compound for 2 days.

Q38-GFP = experiment: OI-RD affinity reaction parameters with Q38-GFP; type: binding
Description: as §2

Q25-GFP = experiment: MST affinity with Q25-GFP
Method: as §3

[5] = molecular target: T5, binding between HTTexon1-Q72-MBP and LC3B (Homo sapiens, UniProt P42858+Q9GZQ8, INS38QQQQQQQQQQQQQQQQQQQQQQQQQQQQQQQQQQQQQQQQQQQQQQQQQQQ); experiment: In vitro pull-down HTTexon1-Q72-MBP and LC3B; type: biochemical; details: 1 μM compound 1 or 100 nM compound 4
T5 construct: His8 (N, cleaved yes); GST (from pGEX-6P1) (N, cleaved yes); made in house; LC3B: E. coli BL21(DE3)pLsyS
Method: Incubation was conducted. Then the unbound proteins were removed.
(3) The resin-bound proteins were eluted and analyzed by SDS-PAGE and Western-blots with anti-LC3 antibody (FIG. 22a).

T3 sequence (P42858 with tags, fused parts or gaps, stated change not applied): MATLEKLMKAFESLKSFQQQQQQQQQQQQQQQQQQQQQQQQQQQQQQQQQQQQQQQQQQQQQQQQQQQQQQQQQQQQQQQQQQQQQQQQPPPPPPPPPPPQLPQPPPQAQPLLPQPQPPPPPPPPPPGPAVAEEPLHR
T4 sequence (P42859 whole entry): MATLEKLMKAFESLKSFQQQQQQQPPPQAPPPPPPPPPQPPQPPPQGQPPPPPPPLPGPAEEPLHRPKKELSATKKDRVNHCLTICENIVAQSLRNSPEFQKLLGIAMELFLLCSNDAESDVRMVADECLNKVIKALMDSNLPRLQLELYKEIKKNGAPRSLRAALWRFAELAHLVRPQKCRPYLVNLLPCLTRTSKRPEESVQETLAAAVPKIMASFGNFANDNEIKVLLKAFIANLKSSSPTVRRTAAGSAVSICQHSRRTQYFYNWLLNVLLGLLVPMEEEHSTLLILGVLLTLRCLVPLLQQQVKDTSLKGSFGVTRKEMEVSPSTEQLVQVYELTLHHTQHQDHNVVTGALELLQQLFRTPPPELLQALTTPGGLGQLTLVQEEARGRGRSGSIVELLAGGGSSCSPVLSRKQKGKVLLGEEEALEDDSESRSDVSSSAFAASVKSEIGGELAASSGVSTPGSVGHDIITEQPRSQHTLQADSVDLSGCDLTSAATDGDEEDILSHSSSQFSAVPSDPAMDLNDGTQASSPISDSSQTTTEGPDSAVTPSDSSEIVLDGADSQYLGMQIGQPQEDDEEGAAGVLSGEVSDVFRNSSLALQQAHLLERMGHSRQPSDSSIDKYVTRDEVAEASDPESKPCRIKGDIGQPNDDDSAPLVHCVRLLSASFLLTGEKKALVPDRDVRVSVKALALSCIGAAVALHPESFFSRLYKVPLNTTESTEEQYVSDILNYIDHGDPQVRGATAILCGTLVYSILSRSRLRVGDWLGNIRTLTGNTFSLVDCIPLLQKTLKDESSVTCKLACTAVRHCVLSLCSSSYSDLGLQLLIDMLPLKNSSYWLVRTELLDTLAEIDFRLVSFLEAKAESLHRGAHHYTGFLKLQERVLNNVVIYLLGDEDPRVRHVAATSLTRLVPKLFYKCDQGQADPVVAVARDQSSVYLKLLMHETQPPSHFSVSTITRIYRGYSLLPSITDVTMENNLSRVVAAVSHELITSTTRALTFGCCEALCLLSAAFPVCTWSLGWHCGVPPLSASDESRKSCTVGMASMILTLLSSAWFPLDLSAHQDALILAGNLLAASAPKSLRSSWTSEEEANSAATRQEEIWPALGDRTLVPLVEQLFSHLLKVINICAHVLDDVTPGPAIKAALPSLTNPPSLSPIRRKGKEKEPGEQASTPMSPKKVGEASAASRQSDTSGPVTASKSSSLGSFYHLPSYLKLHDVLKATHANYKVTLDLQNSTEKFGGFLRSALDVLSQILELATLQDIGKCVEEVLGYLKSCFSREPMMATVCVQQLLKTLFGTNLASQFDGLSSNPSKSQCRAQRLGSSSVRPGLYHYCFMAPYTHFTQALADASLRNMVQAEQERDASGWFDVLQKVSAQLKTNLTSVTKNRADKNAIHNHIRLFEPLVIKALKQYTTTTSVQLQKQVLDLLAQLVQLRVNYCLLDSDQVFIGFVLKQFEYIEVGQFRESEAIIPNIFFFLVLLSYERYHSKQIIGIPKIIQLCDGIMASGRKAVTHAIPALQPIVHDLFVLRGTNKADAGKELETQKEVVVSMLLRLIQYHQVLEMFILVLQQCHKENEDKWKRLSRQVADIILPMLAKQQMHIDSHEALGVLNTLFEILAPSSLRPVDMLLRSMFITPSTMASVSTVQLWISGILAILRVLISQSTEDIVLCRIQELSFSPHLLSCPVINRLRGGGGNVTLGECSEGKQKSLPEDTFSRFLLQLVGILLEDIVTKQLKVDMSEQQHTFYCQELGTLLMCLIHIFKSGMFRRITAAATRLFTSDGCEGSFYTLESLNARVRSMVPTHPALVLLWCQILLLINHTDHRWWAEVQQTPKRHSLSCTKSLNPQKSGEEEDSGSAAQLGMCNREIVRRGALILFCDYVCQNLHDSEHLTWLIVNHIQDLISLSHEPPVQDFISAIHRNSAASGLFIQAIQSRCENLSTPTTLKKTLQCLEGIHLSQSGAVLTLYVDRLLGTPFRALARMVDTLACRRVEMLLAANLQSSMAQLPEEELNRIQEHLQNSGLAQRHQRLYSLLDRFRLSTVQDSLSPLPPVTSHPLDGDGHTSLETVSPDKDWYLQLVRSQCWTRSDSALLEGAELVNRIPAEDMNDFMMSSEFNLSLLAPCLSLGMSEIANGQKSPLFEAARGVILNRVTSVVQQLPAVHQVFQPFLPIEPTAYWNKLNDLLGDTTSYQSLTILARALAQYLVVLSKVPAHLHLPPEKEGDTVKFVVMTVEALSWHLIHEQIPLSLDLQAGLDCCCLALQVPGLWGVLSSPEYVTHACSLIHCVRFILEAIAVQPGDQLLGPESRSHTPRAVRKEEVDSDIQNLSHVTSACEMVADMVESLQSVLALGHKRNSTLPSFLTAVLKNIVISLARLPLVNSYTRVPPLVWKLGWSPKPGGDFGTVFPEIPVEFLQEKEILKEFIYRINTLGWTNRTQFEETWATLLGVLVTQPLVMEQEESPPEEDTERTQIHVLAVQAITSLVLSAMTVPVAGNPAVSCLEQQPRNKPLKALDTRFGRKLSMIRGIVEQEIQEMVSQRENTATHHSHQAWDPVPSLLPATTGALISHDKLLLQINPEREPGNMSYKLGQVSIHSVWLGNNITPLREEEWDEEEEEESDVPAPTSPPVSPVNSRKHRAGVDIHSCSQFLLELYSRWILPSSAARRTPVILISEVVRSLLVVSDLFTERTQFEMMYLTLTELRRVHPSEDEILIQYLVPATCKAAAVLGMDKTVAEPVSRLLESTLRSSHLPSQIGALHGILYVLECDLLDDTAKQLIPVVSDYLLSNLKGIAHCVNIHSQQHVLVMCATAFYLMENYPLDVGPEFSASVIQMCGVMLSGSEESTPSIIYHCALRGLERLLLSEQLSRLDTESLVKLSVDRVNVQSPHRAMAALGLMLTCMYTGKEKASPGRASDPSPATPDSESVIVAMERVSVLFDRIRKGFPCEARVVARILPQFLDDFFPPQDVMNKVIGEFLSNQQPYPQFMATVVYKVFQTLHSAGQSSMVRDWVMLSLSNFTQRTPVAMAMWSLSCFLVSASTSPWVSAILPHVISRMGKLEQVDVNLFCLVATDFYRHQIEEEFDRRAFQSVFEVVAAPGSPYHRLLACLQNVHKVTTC
T5 sequence (P42858 other isoform, or with tags, fused parts or gaps with the stated changes): as the sequence (P42858 with tags, fused parts or gaps, stated change not applied) above
Sequence of MBP-ATXN3-Q68 (P54252 with tags, fused parts or gaps isoform P54252-4 with the stated changes): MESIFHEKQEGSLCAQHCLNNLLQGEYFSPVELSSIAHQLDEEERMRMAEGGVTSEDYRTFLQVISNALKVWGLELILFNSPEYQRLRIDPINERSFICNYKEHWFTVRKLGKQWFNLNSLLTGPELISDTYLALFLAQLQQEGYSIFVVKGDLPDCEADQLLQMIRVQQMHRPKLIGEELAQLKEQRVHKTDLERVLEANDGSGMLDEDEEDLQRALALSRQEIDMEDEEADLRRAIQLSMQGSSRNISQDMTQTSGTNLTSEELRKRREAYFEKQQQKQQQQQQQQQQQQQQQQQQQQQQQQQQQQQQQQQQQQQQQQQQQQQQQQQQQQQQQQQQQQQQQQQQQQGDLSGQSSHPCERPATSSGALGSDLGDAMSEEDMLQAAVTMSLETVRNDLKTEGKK
T2 sequence (P54252 with tags, fused parts or gaps isoform P54252-4 with the stated changes): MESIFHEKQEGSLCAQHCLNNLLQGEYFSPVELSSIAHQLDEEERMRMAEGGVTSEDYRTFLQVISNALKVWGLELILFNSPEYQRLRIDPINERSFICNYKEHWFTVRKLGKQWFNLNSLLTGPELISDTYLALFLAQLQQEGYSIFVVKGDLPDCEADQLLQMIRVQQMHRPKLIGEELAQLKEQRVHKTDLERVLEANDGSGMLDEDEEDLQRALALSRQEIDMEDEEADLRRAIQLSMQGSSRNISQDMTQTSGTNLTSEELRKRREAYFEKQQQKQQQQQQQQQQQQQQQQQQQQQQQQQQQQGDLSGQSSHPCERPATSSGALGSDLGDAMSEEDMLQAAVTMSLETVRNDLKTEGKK

For `O=C1Nc2ccc(I)cc2/C1=C/c1cc(Br)c(O)c(Br)c1` [compound 1, GW5074], the “mHTT selectivity relative to wtHTT” value (mHTT; Hdh^Q140/Q7 mice, icv, 10 days) was “showed mHTT selectivity relative to wtHTT”, the “mHTT level in cortices” value (mHTT; mouse, in vivo) was “significantly reduced mHTT level” and the “binding to LC3B” value (LC3B [1]; OI-RD difference images) was “can bind”. For the same compound, the Koff (LC3B [1]; OI-RD, LC3B) was 0.00029 s⁻¹, the Kon (LC3B [1]; OI-RD, LC3B) was 3.72e-05 min/nM and the Kd (LC3B [1]; OI-RD, LC3B, read-out: Kd) was 468 nM. The “binding to MBP-ATXN3-Q28” value (MBP-ATXN3-Q28) was “did not bind”, the Kd (MBP-ATXN3-Q68) was 6320 nM and the Kd (Q53-GFP) was 25 nM. For the same compound, the Koff (Q53-GFP) was 6.3e-05 s⁻¹, the Kon (Q53-GFP) was 0.000151 min/nM and the Kd (LC3B [2]) was 4760 nM. The “binding affinity to proteins with 38 or more glutamine repeats” value [3] was “showed certain binding affinity”, the “binding to HTTexon1-Q72” value (HTTexon1-Q72-MBP; OI-RD difference images) was “can bind” and the Koff (HTTexon1-Q72-MBP; OI-RD, HTTexon1-Q72) was 0.000238 s⁻¹. The Kon (HTTexon1-Q72-MBP; OI-RD, HTTexon1-Q72) was 9.07e-05 min/nM, the Kd (HTTexon1-Q72-MBP; OI-RD, HTTexon1-Q72, read-out: Kd) was 158 nM and the “level of proteins containing expanded polyglutamine in cells (polyQ-GFP)” value [4] was “can selectively reduce the level”. The Kd (Q72-GFP) was 180 nM, the Koff (Q72-GFP) was 0.000252 s⁻¹ and the Kon (Q72-GFP) was 8.37e-05 min/nM. The wtHTT levels (wtHTT) was “did not reduce wtHTT levels”, the Kd (Q38-GFP) was 1920 nM and the Koff (Q38-GFP) was 0.000338 s⁻¹. The Kon (Q38-GFP) was 1.06e-05 min/nM, the “binding affinity to Q25-GFP” value (Q25-GFP) was “no binding affinity” and the “binding between HTTexon1-Q72-MBP and LC3B” value [5] was “could enhance the binding”.
